Measurements: patent publication US10106542B2, “Substituted 6,7-dihydropyrazolo[1,5-a]pyrazines as negative allosteric modulators of mGluR2 receptors” (Janssen Pharmaceutica NV, priority 2013, dated 2018)
Structures can show the parent of a compound that is named as a salt.

What was measured:
human mGlu2 receptor = biological target: T1, human mGlu2 receptor (Homo sapiens, UniProt Q14416); assay: [35S]GTPγS binding assay (mGluR2 negative allosteric modulation); assay type: biochemical; details: for IC50: membranes from CHO cells transfected with human mGlu2 receptor, glutamate 60 μM, pIC50 = −log IC50 (M), read-out: GTPγS - hmGluR2 anGT pIC50 (converted); for Emax: relative maximal effect: maximal % inhibition relative to the control glutamate response, read-out: GTPγS - hmGluR2 anGT Emax
T1 construct: expressed in transfected cells; host or cells: CHO cells (membrane preparation)
T1 sequence (Q14416 19-872): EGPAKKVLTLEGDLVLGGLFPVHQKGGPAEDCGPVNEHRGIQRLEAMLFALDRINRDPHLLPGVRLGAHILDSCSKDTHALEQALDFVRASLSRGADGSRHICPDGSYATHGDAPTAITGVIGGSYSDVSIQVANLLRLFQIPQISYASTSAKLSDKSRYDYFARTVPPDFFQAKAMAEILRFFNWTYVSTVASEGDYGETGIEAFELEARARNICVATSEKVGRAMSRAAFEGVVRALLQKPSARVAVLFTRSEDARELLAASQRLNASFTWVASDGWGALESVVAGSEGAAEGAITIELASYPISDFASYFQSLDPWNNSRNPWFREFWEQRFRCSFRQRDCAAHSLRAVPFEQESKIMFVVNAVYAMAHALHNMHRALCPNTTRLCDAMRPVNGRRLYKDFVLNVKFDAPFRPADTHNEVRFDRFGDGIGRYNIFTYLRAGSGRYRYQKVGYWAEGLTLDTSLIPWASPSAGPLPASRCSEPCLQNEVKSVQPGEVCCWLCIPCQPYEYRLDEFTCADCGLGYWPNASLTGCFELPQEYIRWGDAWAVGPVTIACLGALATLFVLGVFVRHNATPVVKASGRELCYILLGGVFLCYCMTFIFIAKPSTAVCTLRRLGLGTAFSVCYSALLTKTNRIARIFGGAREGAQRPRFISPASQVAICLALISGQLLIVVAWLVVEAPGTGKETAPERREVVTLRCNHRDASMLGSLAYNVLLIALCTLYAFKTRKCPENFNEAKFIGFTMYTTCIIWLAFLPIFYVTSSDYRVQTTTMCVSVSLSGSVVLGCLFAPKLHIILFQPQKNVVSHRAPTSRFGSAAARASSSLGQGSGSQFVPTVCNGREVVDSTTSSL
Description: 1) [^35S]GTPγS binding assay
The [^35S]GTPγS binding assay is a functional membrane-based assay used to study G-protein coupled receptor (GPCR) function whereby incorporation of a non-hydrolysable form of GTP, [^35S]GTPγS (guanosine 5′-triphosphate, labelled with […] ^35S), is measured. The G-protein a subunit catalyzes the exchange of guanosine 5′-diphosphate (GDP) by guanosine triphosphate (GTP) and on activation of the GPCR by an agonist, [^35S]GTPγS, becomes incorporated and cannot be cleaved to continue the exchange cycle (Harper (1998) Current Protocols in Pharmacology 2.6.1-10, John Wiley & Sons, Inc.). […] Here we describe the use of the [^35S]GTPγS binding assay using membranes from cells transfected with the human mGlu2 receptor and adapted from Schaffhauser et al. (Molecular Pharmacology, 2003, […]) for the detection of the negative allosteric modulation (NAM) properties of the compounds of this invention.
CHO-cells were cultured to pre-confluence and stimulated with 5 mM butyrate for 24 h. Cells were then collected by scraping in PBS and cell suspension was centrifuged (10 min at 4000 RPM in benchtop centrifuge). Supernatant was discarded and pellet gently resuspended in 50 mM Tris-HCl, pH 7.4 by mixing with an Ultra Turrax homogenizer. The suspension was centrifuged at 12,400 RPM (Sorvall F14S-6x250Y) for 10 minutes and the supernatant discarded. The pellet was homogenized in 5 mM Tris-HCl, pH 7.4 using an Ultra Turrax homogenizer and centrifuged again (13,000 RPM, 20 min, 4° C.). The final pellet was resuspended in 50 mM Tris-HCl, pH 7.4 and stored at −80° C. in appropriate aliquots before use. Protein concentration was determined by the Bradford method (Bio-Rad, USA) with bovine serum albumin as standard.
Measurement of mGluR2 negative allosteric modulatory activity of test compounds was performed as follows. Test compounds and glutamate were diluted in assay buffer containing 10 mM HEPES acid, 10 mM HEPES salt, pH 7.4, 100 mM NaCl, 3 mM MgCl2 and 10 μM GDP. Human mGlu2 receptor-containing membranes were thawed on ice and diluted in assay buffer supplemented with 18 μg/ml saponin. […] After addition of [^35S]GTPγS (f.c. 0.1 nM), assay mixtures were shaken briefly and further incubated to allow [^35S]GTPγS incorporation on activation (30 minutes, 30° C.). Final assay mixtures contained 7 μg of membrane protein in 10 mM HEPES acid, 10 mM HEPES salt, pH 7.4, 100 mM NaCl, 3 mM MgCl2, 10 μM GDP and 10 μg/ml saponin. Total reaction volume was 200 μl. Reactions were terminated by rapid filtration through Unifilter-96 GF/B plates (Perkin Elmer, Massachusetts, USA) using a 96-well filtermate universal harvester. Filters were washed 6 times with ice-cold 10 mM NaH2PO4/10 mM Na2HPO4, pH 7.4. Filters were then air-dried, and 30 μl of liquid scintillation cocktail (Microscint-O) was added to each well. Membrane-bound radioactivity was counted in a Topcount.
The concentration-response curves of representative compounds of the present invention were generated using the Lexis software interface (developed at J&J). Data were calculated as % of the control glutamate response, defined as the response that is generated upon addition of an EC80-equivalent concentration of glutamate.

| SMILES | IC50 (human mGlu2 receptor) [M] | Emax (human mGlu2 receptor) [%] | melting point |
| --- | --- | --- | --- |
| CN(C)c1cc(-c2cnn3c2C(=O)N(c2ccc(Cl)c(Cl)c2)CC3CF)ccn1 (single isomer, unassigned) [compound 90] | 3.09e-09 | 103 | 93.7 °C |
| C[C@H]1CN(c2ccc(Cl)cc2)C(=O)c2c(-c3ccncc3)cnn21 [compound 73] | 1.29e-07 | 102 | 144.3 °C |
| CCOc1cc(-c2cnn3c2C(=O)N(c2ccc(Cl)c(Cl)c2)C[C@@H]3C)ccn1 (as salt: HCl) [compound 133] |  |  | 191.5 °C |
| COc1ccc(N2C[C@H](C)n3ncc(-c4ccnc(C)c4)c3C2=O)cc1Cl (as salt: HCl) [compound 20] |  |  | 293.6 °C |
| Cc1cc(-c2cnn3c2C(=O)N(c2ccc(OCCF)c(C(F)(F)F)c2)C[C@@H]3C)ccn1 [compound 77, (7S)-5-[4-(2-Fluoroethoxy)-3-(trifluoromethyl)phenyl]-7-methyl-3-(2-methyl-4-pyridyl)-6,7-dihydropyrazolo[1,5-a]pyrazin-4-one] | 3.89e-07 | 101 | 60.8 °C |
| COc1ccc(N2C[C@H](C)n3ncc(-c4ccnc(C)c4)c3C2=O)cc1 (as salt: HCl) [compound 38] |  |  | 294 °C |
| Cc1cc(-c2cnn3c2C(=O)N(c2cccc(C(F)(F)F)c2)C[C@@H]3C)ccn1 [compound 23] | 1.1e-07 | 104 | 139.2 °C |
| COc1cc(N2C[C@H](C)n3ncc(-c4ccnc(C)c4)c3C2=O)cc(F)c1F [compound 84] | 8.13e-07 | 104 | 101.2 °C |
| C[C@H]1CN(c2ccc(Cl)c(Cl)c2)C(=O)c2c(-c3ccnc(C(F)F)c3)cnn21 [compound 114] | 7.08e-09 | 104 | 177.6 °C |
| COc1cc(-c2cnn3c2C(=O)N(c2ccc(Cl)c(Cl)c2)C[C@@H]3C)cc(C)n1 [compound 146] | 1.66e-08 | 105 | 166.8 °C |
| COc1nc(N2C[C@H](C)n3ncc(-c4ccnc(C)c4)c3C2=O)ccc1C(F)(F)F [compound 207] | 3.8e-09 | 109 | 147.6 °C |
| COc1cc(-c2cnn3c2C(=O)N(c2ccc(C(F)(F)F)c(C#N)c2)C[C@@H]3C)ccn1 [compound 88] | 4.07e-08 | 102 | 157.75 °C (dec.) |
| CC(O)c1cc(-c2cnn3c2C(=O)N(c2ccc(C(F)(F)F)cc2)C[C@@H]3C)ccn1 (stereo partly shown) [compound 128] | 5.89e-07 | 104 | 139.8 °C |
| C[C@H]1CN(c2ccc(C(F)(F)F)cc2)C(=O)c2c(-c3ccnc(N)c3)cnn21 [compound 71, (7S)-3-(2-Aminopyridin-4-yl)-7-methyl-5-[4-(trifluoromethyl)phenyl]-6,7-dihydropyrazolo[1,5-a]pyrazin-4(5H)-one] | 9.77e-08 | 103 | 218.9 °C |
| Cc1cc(-c2cnn3c2C(=O)N(c2ccc(C(F)(F)F)cc2)CC3CF)ccn1 (stereo not shown) [compound 52, 7-(Fluoromethyl)-3-(2-methyl-4-pyridyl)-5-[4-(trifluoromethyl)phenyl]-6,7-dihydropyrazolo[1,5-a]pyrazin-4-one] | 1.05e-08 | 107 | > 300 °C |
| C[C@H]1CN(c2ccc(C(F)(F)F)c(F)c2)C(=O)c2c(-c3ccncc3)cnn21 [compound 60] | 3.16e-08 | 101 | 163.8 °C |
| Cc1cc(N2C[C@H](C)n3ncc(-c4ccnc(NC(C)C)c4)c3C2=O)ccc1C(F)(F)F [compound 267] | 2.24e-08 | 107 | 131.3 °C |
| CC(=O)N1CC(c2ccc(-c3cnn4c3C(=O)N(c3ccc(C(F)(F)F)cc3)C[C@@H]4C)cn2)C1 [compound 235] | 1.26e-06 | 102 | 93 °C |
| Cc1cc(-c2cnn3c2C(=O)N(c2ccc(S(F)(F)(F)(F)F)cc2)C[C@@H]3C)cc(C)n1 [compound 53] | 9.77e-09 | 102 | 233.1 °C |
| Cc1cc(-c2cnn3c2C(=O)N(c2ccc(SC(F)(F)F)cc2)C[C@@H]3C)ccn1 (as salt: HCl) [compound 236] |  |  | > 300 °C |
| COCc1cc(-c2cnn3c2C(=O)N(c2ccc(C(F)(F)F)cc2)C[C@@H]3C)ccn1 (as salt: HCl) [compound 22] |  |  | 282.3 °C |
| C[C@H]1CN(c2ccc(C(F)(F)F)cc2)C(=O)c2c(-c3ccnc(N4CCCCC4)c3)cnn21 (as salt: HCl) [compound 107] |  |  | 294 °C |
| CC(C)Oc1cc(-c2cnn3c2C(=O)N(c2ccc(Cl)c(Cl)c2)C[C@@H]3C)ccn1 (as salt: HCl) [compound 137] |  |  | 193.8 °C |
| CCOc1ccc(N2C[C@H](C)n3ncc(-c4ccnc(C)c4)c3C2=O)cc1Cl (as salt: HCl) [compound 17] |  |  | > 300 °C |
| CNc1cc(-c2cnn3c2C(=O)N(c2ccc(Cl)cc2)C[C@@H]3C)ccn1 [compound 178] | 2.4e-08 | 107 |  |

Other lines, results leading:

| IC50 (human mGlu2 receptor) [M] | Emax (human mGlu2 receptor) [%] | melting point | SMILES |
| --- | --- | --- | --- |
| 4.07e-07 | 109 | > 300 °C | C[C@H]1CN(c2ccc(C(F)(F)F)cc2)C(=O)c2c(-c3ccnc(N4CC(O)C4)c3)cnn21 [compound 101] |
| 1.86e-08 | 105 | 57.5 °C | COc1cc(-c2cnn3c2C(=O)N(c2ccc(C(F)(F)F)cc2)C[C@@H]3C)cc(C)n1 [compound 145] |
| 2.75e-08 | 108 | 124 °C | C[C@H]1CN(c2ccc(C(F)(F)F)cc2)C(=O)c2c(-c3ccnc(N4CCCC4)c3)cnn21 [compound 105] |
| 1.78e-07 | 105 | 105.4 °C | C[C@H]1CN(c2ccc(Cl)c(Cl)c2)C(=O)c2c(-c3ccnc(CO)c3)cnn21 [compound 125, (7S)-5-(3,4-Dichlorophenyl)-3-[2-(hydroxymethyl)-4-pyridyl]-7-methyl-6,7-dihydropyrazolo[1,5-a]pyrazin-4-one] |
| 9.77e-07 | 99 | 254 °C | C[C@H]1CN(c2ccc(C(F)(F)F)cc2)C(=O)c2c(-c3ccc(N)nc3)cnn21 [compound 37] |
| 7.08e-08 | 100 | > 300 °C | C[C@H]1CN(c2ccc(Cl)c(C(F)(F)F)c2)C(=O)c2c(-c3ccncc3)cnn21 [compound 68] |
| 2.29e-08 | 103 | 125.6 °C | CNc1cc(-c2cnn3c2C(=O)N(c2ccc(C(F)(F)F)c(OC)c2)C[C@@H]3C)ccn1 [compound 183] |
| 1.29e-07 | 102 | 185.9 °C | Cc1cc(-c2cnn3c2C(=O)N(c2ccc(C(F)F)cc2)C[C@@H]3C)ccn1 [compound 162] |
| 4.9e-09 | 107 | 292.8 °C | Cc1cc(-c2cnn3c2C(=O)N(c2cc(Cl)c(C(F)(F)F)cn2)C[C@@H]3C)ccn1 [compound 204, (7S)-5-[4-Chloro-5-(trifluoromethyl)-2-pyridyl]-7-methyl-3-(2-methyl-4-pyridyl)-6,7-dihydropyrazolo[1,5-a]pyrazin-4-one] |
| 2.51e-08 | 106 | 108.5 °C | Cc1cc(-c2cnn3c2C(=O)N(c2ccc(OC(F)F)c(Cl)c2)C[C@@H]3C)ccn1 [compound 168] |
|  |  | 173.9 °C | CC(C)Oc1cc(-c2cnn3c2C(=O)N(c2ccc(C(F)(F)F)cc2)C[C@@H]3C)ccn1 (as salt: HCl) [compound 138] |
| 2.24e-08 | 116 |  | CNc1cc(-c2cnn3c2C(=O)N(c2ccc(C(F)(F)F)cc2)C[C@@H]3C)cc(F)n1 [compound 243] |
